Assay results published in PubChem BioAssay (NCI).
“And” between values parts separate entries of the source, which are not always exact repeats. Equal values may be shown once.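 A five-concentration, 48-hour dose response in 96-well plates underlies each endpoint, interpolated linearly between surrounding concentrations. Abbreviation: GI50, concentration required for 50% inhibition of growth. TGI marks complete inhibition of growth.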

Legend:
Test in all cases: DTP human tumour cell line panel, 48 h
RXF 393 renal = test system: RXF 393 renal
SF-295 CNS = test system: SF-295 CNS
RPMI-8226 leukemia = test system: RPMI-8226 leukemia
HL-60(TB) leukemia = test system: HL-60(TB) leukemia
HCT-15 colon = test system: HCT-15 colon
LOX IMVI melanoma = test system: LOX IMVI melanoma
TK-10 renal = test system: TK-10 renal
MDA-MB-231 breast = test system: MDA-MB-231 breast
SF-268 CNS = test system: SF-268 CNS
SW-620 colon = test system: SW-620 colon
NCI-H460 lung = test system: NCI-H460 lung
A498 renal = test system: A498 renal
MALME-3M melanoma = test system: MALME-3M melanoma
OVCAR-3 ovarian = test system: OVCAR-3 ovarian
U251 CNS = test system: U251 CNS
SK-MEL-2 melanoma = test system: SK-MEL-2 melanoma
DU-145 prostate = test system: DU-145 prostate
SK-MEL-28 melanoma = test system: SK-MEL-28 melanoma
KM12 colon = test system: KM12 colon
SN12C renal = test system: SN12C renal
PC-3 prostate = test system: PC-3 prostate
BT-549 breast = test system: BT-549 breast
NCI-H23 lung = test system: NCI-H23 lung
EKVX NSCLC = test system: EKVX NSCLC
M14 melanoma = test system: M14 melanoma
OVCAR-4 ovarian = test system: OVCAR-4 ovarian
SK-MEL-5 melanoma = test system: SK-MEL-5 melanoma
MDA-MB-435 = test system: MDA-MB-435
UO-31 renal = test system: UO-31 renal
HT29 colon = test system: HT29 colon
SNB-75 CNS = test system: SNB-75 CNS
A549 NSCLC = test system: A549 NSCLC
K-562 leukemia = test system: K-562 leukemia
HOP-92 NSCLC = test system: HOP-92 NSCLC
CAKI-1 renal = test system: CAKI-1 renal
UACC-62 melanoma = test system: UACC-62 melanoma
ACHN renal = test system: ACHN renal
NCI-H522 lung = test system: NCI-H522 lung
SNB-19 CNS = test system: SNB-19 CNS
HOP-62 NSCLC = test system: HOP-62 NSCLC
MDA-N = test system: MDA-N
T-47D breast = test system: T-47D breast
SR leukemia = test system: SR leukemia
HS 578T breast = test system: HS 578T breast
786-0 renal = test system: 786-0 renal
OVCAR-8 ovarian = test system: OVCAR-8 ovarian
NCI-H226 lung = test system: NCI-H226 lung
OVCAR-5 ovarian = test system: OVCAR-5 ovarian
COLO 205 colon = test system: COLO 205 colon
HCT-116 colon = test system: HCT-116 colon
NCI/ADR-RES ovarian = test system: NCI/ADR-RES ovarian
HCC-2998 colon = test system: HCC-2998 colon
UACC-257 melanoma = test system: UACC-257 melanoma
SK-OV-3 ovarian = test system: SK-OV-3 ovarian
CCRF-CEM leukemia = test system: CCRF-CEM leukemia
IGROV1 ovarian = test system: IGROV1 ovarian
MOLT-4 leukemia = test system: MOLT-4 leukemia
MCF7 breast = test system: MCF7 breast
SF-539 CNS = test system: SF-539 CNS

For `CCN(CC)C(=S)SS(=O)(=O)c1ccc(NC(C)=O)cc1`, the TGI (RXF 393 renal) was 33000 nM, the TGI (SF-295 CNS) was > 100000 nM and the TGI (RPMI-8226 leukemia) was 44000 nM. For the same compound, the TGI (HL-60(TB) leukemia) was 76400 nM, the TGI (HCT-15 colon) was > 100000 nM and the TGI (LOX IMVI melanoma) was 31800 nM. For the same compound, the TGI (TK-10 renal) was > 76000 nM, the TGI (MDA-MB-231 breast) was 36400 nM and the TGI (SF-268 CNS) was > 70200 nM. For the same compound, the TGI (SW-620 colon) was 32000 nM, the TGI (NCI-H460 lung) was > 100000 nM and the TGI (A498 renal) was > 89500 nM. For the same compound, the TGI (MALME-3M melanoma) was 31600 nM, the TGI (OVCAR-3 ovarian) was > 100000 nM and the TGI (U251 CNS) was 44600 nM. The TGI (SK-MEL-2 melanoma) was > 100000 nM, the TGI (DU-145 prostate) was > 75400 nM and the TGI (SK-MEL-28 melanoma) was 39200 nM. For the same compound, the TGI (KM12 colon) was > 100000 nM, the TGI (SN12C renal) was 39100 nM and the TGI (PC-3 prostate) was > 100000 nM. The TGI (BT-549 breast) was > 78400 nM, the TGI (NCI-H23 lung) was 62300 nM and the TGI (EKVX NSCLC) was > 100000 nM. For the same compound, the TGI (M14 melanoma) was 33000 nM, the TGI (OVCAR-4 ovarian) was 54300 nM and the TGI (SK-MEL-5 melanoma) was 20900 nM. For the same compound, the TGI (MDA-MB-435) was 33400 nM, the TGI (UO-31 renal) was 42600 nM and the TGI (HT29 colon) was 70800 nM. For the same compound, the TGI (SNB-75 CNS) was 97200 nM, the TGI (A549 NSCLC) was 43400 nM and the TGI (K-562 leukemia) was > 100000 nM. For the same compound, the TGI (HOP-92 NSCLC) was 51300 nM, the TGI (CAKI-1 renal) was 41800 nM and the TGI (UACC-62 melanoma) was > 91300 nM. The TGI (ACHN renal) was > 88800 nM, the TGI (NCI-H522 lung) was 840 nM and the TGI (SNB-19 CNS) was > 100000 nM. The TGI (HOP-62 NSCLC) was 42000 nM, the TGI (MDA-N) was > 78800 nM and the TGI (T-47D breast) was > 100000 nM. The TGI (SR leukemia) was > 51600 nM, the TGI (HS 578T breast) was > 100000 nM and the TGI (786-0 renal) was 36500 nM. The TGI (OVCAR-8 ovarian) was 29100 nM, the TGI (NCI-H226 lung) was > 100000 nM and the TGI (OVCAR-5 ovarian) was 60500 nM. For the same compound, the TGI (COLO 205 colon) was > 72100 nM, the TGI (HCT-116 colon) was 31100 nM and the TGI (NCI/ADR-RES ovarian) was 95400 nM. The TGI (HCC-2998 colon) was > 100000 nM, the TGI (UACC-257 melanoma) was 58700 nM and the TGI (SK-OV-3 ovarian) was > 100000 nM.

For `CCCCCCNCCCNc1c2ccccc2nc2cccc([N+](=O)[O-])c12`, the GI50 (CCRF-CEM leukemia) was 27.7 nM, the TGI (CCRF-CEM leukemia) was 170 nM and 182 nM and the TGI (RXF 393 renal) was 31.2 nM. The GI50 (SF-295 CNS) was 26.3 nM, the TGI (SF-295 CNS) was 59 nM and 422 nM and the GI50 (HL-60(TB) leukemia) was 21.6 nM. For the same compound, the TGI (HCT-15 colon) was > 100000 nM, the GI50 (LOX IMVI melanoma) was 44 nM and the TGI (LOX IMVI melanoma) was 81.8 nM and 295 nM. For the same compound, the GI50 (TK-10 renal) was 70.5 nM, the TGI (TK-10 renal) was 787 nM and 512 nM and the GI50 (IGROV1 ovarian) was 25.2 nM. For the same compound, the TGI (IGROV1 ovarian) was 71.3 nM and 186 nM, the GI50 (MDA-MB-231 breast) was 15.1 nM and the TGI (MDA-MB-231 breast) was 93.3 nM and 221 nM. The GI50 (SF-268 CNS) was 38 nM, the TGI (SF-268 CNS) was 52.2 nM and 405 nM and the TGI (SW-620 colon) was 115 nM and 734 nM. For the same compound, the TGI (NCI-H460 lung) was 21.8 nM, the GI50 (A498 renal) was 93.1 nM and the TGI (A498 renal) was 321 nM and 327 nM. The GI50 (MALME-3M melanoma) was 16.8 nM, the TGI (MALME-3M melanoma) was 62.8 nM and 57.2 nM and the GI50 (OVCAR-3 ovarian) was 39.5 nM. For the same compound, the TGI (OVCAR-3 ovarian) was 47.7 nM and 206 nM, the TGI (U251 CNS) was 96.6 nM and 116 nM and the TGI (SK-MEL-2 melanoma) was 33.1 nM and 23.1 nM. For the same compound, the GI50 (SK-MEL-28 melanoma) was 53.4 nM, the TGI (SK-MEL-28 melanoma) was 323 nM and 375 nM and the TGI (KM12 colon) was 35.2 nM and 33.5 nM. For the same compound, the TGI (SN12C renal) was 120 nM, the TGI (PC-3 prostate) was 87.8 nM and 393 nM and the GI50 (BT-549 breast) was 212 nM. The TGI (BT-549 breast) was 271 nM and 448 nM, the GI50 (NCI-H23 lung) was 15.9 nM and the TGI (NCI-H23 lung) was 25.3 nM and 59.9 nM. For the same compound, the TGI (MOLT-4 leukemia) was 85.4 nM and 64.1 nM, the GI50 (EKVX NSCLC) was 185 nM and the TGI (EKVX NSCLC) was 120 nM and 812 nM. The TGI (M14 melanoma) was 24.7 nM and 20.5 nM, the GI50 (OVCAR-4 ovarian) was 11.5 nM and the TGI (OVCAR-4 ovarian) was 41.9 nM and 48.6 nM. For the same compound, the TGI (SK-MEL-5 melanoma) was 25.8 nM and 24.3 nM, the TGI (MCF7 breast) was 112 nM and 103 nM and the TGI (MDA-MB-435) was 22.6 nM and 23.4 nM. The GI50 (UO-31 renal) was 145 nM, the TGI (UO-31 renal) was 393 nM and 331 nM and the TGI (HT29 colon) was 26.8 nM and 124 nM. The GI50 (SNB-75 CNS) was 65 nM, the TGI (SNB-75 CNS) was 181 nM and 237 nM and the TGI (A549 NSCLC) was 113 nM and 131 nM. The TGI (K-562 leukemia) was 21.2 nM, the TGI (HOP-92 NSCLC) was 79.2 nM and 69.3 nM and the TGI (CAKI-1 renal) was 271 nM. The GI50 (UACC-62 melanoma) was 18.1 nM, the TGI (UACC-62 melanoma) was 131 nM and 61.8 nM and the GI50 (ACHN renal) was 15.1 nM. The TGI (ACHN renal) was 44.6 nM and 85.8 nM, the TGI (NCI-H522 lung) was 42.1 nM and the GI50 (SNB-19 CNS) was 17 nM. The TGI (HOP-62 NSCLC) was 77.3 nM and 37.4 nM, the TGI (MDA-N) was 25.2 nM and 103 nM and the GI50 (T-47D breast) was 50.3 nM. The TGI (T-47D breast) was 288 nM and 457 nM, the TGI (HS 578T breast) was 210 nM and 434 nM and the GI50 (SF-539 CNS) was 50.7 nM. For the same compound, the TGI (SF-539 CNS) was 307 nM and 225 nM, the GI50 (786-0 renal) was 23.9 nM and the TGI (786-0 renal) was 41.6 nM and 193 nM. The TGI (OVCAR-8 ovarian) was 136 nM and 170 nM, the GI50 (NCI-H226 lung) was 22.8 nM and the TGI (NCI-H226 lung) was 274 nM and 148 nM. For the same compound, the GI50 (OVCAR-5 ovarian) was 20.7 nM, the TGI (OVCAR-5 ovarian) was 194 nM and 151 nM and the TGI (COLO 205 colon) was 14.9 nM and 41.5 nM. For the same compound, the TGI (HCT-116 colon) was 1360 nM, the GI50 (NCI/ADR-RES ovarian) was 540 nM and the TGI (NCI/ADR-RES ovarian) was 1660 nM and 2800 nM. The TGI (HCC-2998 colon) was 21 nM, the GI50 (UACC-257 melanoma) was 59 nM and the TGI (UACC-257 melanoma) was 252 nM and 261 nM. For the same compound, the TGI (SK-OV-3 ovarian) was 278 nM and 390 nM.
